Key:
[1] = test system: Zymoseptoria tritici; experiment: Leaf blotch of wheat (SEPTTR) disease control on wheat seedlings; assay type: in vivo; design: key to SEPTTR 1DP, HV activity at 100 ppm (% control rating) / SEPTTR 3DC, HV activity at 100 ppm (% control rating) / SEPTTR disease control, 1DP / SEPTTR disease control, 3DC / SEPTTR 1DP disease control rating, HV activity / SEPTTR 3DC disease control rating, HV activity / SEPTTR 3DC, LV activity at 125.1 g/H (% Control rating) / SEPTTR 1DP, LV activity at 125.1 g/H (% Control rating) / SEPTTR 1DP disease control rating, LV activity at 125.1 g/H / SEPTTR 3DC disease control rating, LV activity at 125.1 g/H / SEPTTR 3DC disease control rating, HV activity at 100 ppm / SEPTTR 1DP disease control rating, HV activity at 100 ppm / HV activity at 100 ppm SEPTTR 3DC (disease control rating) / HV activity at 100 ppm SEPTTR 1DP (disease control rating) / LV activity at 125.1 g/H SEPTTR 1DP (disease control rating) / LV activity at 125.1 g/H SEPTTR 3DC (disease control rating): A: > 80; B: ≤ 80; C: Not Tested; D: No Activity Observed in the Reported Assay; settings: low volume application, 125.1 g/H; for SEPTTR 1DP, LV activity at 125.1 g/H (% Control rating): 1 Day Protectant; for SEPTTR 3DC, LV activity at 125.1 g/H (% Control rating): 3 Day Curative
[2] = test system: Puccinia triticina; experiment: Wheat brown rust (PUCCRT) disease control on wheat seedlings; assay type: in vivo; design: key to PUCCRT 3DC, HV activity at 100 ppm (% control rating) / PUCCRT disease control, 3DC / PUCCRT 1DP disease control rating, HV activity / PUCCRT 3DC disease control rating, HV activity / PUCCRT 3DC, LV activity at 125.1 g/H (% Control rating) / PUCCRT 1DP, LV activity at 125.1 g/H (% Control rating) / PUCCRT 3DC disease control rating, LV activity at 125.1 g/H / PUCCRT 1DP disease control rating, LV activity at 125.1 g/H / PUCCRT 3DC disease control rating, HV activity at 100 ppm / PUCCRT 1DP disease control rating, HV activity at 100 ppm / HV activity at 100 ppm PUCCRT 3DC (disease control rating) / LV activity at 125.1 g/H PUCCRT 1DP (disease control rating) / LV activity at 125.1 g/H PUCCRT 3DC (disease control rating): A: > 80; B: ≤ 80; C: Not Tested; D: No Activity Observed in the Reported Assay; settings: low volume application, 125.1 g/H; for PUCCRT 1DP, LV activity at 125.1 g/H (% Control rating): 1 Day Protectant; for PUCCRT 3DC, LV activity at 125.1 g/H (% Control rating): 3 Day Curative

Compound	SEPTTR 1DP, LV activity at 125.1 g/H (% Control rating) [1]	SEPTTR 3DC, LV activity at 125.1 g/H (% Control rating) [1]	PUCCRT 1DP, LV activity at 125.1 g/H (% Control rating) [2]	PUCCRT 3DC, LV activity at 125.1 g/H (% Control rating) [2]
CCCOC[C@@H](Oc1ccccc1)[C@H](C)OC(=O)[C@H](CC)NC(=O)c1nccc(OC)c1OC(C)=O [Cmpd 484]	B (≤ 80)	D	B (≤ 80)	A (> 80)
COc1ccnc(C(=O)N[C@@H](C)C(=O)O[C@@H](C)[C@@H](COc2ccccc2)Oc2ccccc2)c1OC(C)=O [Cmpd 488]	A (> 80)	B (≤ 80)	A (> 80)	A (> 80)
CC[C@H](NC(=O)c1nccc(OC)c1OC(C)=O)C(=O)O[C@@H](C)[C@@H](COc1ccccc1)Oc1ccccc1 [Cmpd 489]	A (> 80)	A (> 80)	A (> 80)	A (> 80)
COCC[C@H](Cc1ccc(F)cc1)[C@@H](OC(=O)C(C)C)[C@H](C)OC(=O)[C@H](C)NC(=O)c1nccc(OC)c1OCOC(C)=O [Cmpd 499]	D	B (≤ 80)	A (> 80)	A (> 80)
CC[C@@H](CCC(C)C)[C@H](OCC1CC1)[C@H](C)OC(=O)[C@H](C)NC(=O)c1nccc(OC)c1OCOC(C)=O [Cmpd 503]	B (≤ 80)	A (> 80)	A (> 80)	A (> 80)
CC[C@@H](CCC(C)C)[C@H](OCC1CC1)[C@H](C)OC(=O)[C@H](C)NC(=O)c1nccc(OC)c1OC(C)=O [Cmpd 504]	B (≤ 80)	B (≤ 80)	A (> 80)	A (> 80)
CCCO[C@@H](C1CC1)[C@@H](Oc1ccccc1)[C@H](C)OC(=O)[C@H](C)NC(=O)c1nccc(OC)c1OCOC(C)=O [Cmpd 505]	B (≤ 80)	B (≤ 80)	A (> 80)	A (> 80)
CC[C@H](CCC(C)C)[C@@H](OCC1CC1)[C@H](C)OC(=O)[C@H](C)NC(=O)c1nccc(OC)c1OCOC(C)=O [Cmpd 506]	B (≤ 80)	B (≤ 80)	A (> 80)	B (≤ 80)
CC[C@H](CCC(C)C)[C@@H](OCC1CC1)[C@H](C)OC(=O)[C@H](C)NC(=O)c1nccc(OC)c1OC(C)=O [Cmpd 507]	B (≤ 80)	B (≤ 80)	B (≤ 80)	B (≤ 80)
CC[C@H](CC1CCCC1)[C@@H](OCC1CC1)[C@H](C)OC(=O)[C@H](C)NC(=O)c1nccc(OC)c1OC(C)=O [Cmpd 508]	B (≤ 80)	B (≤ 80)	B (≤ 80)	B (≤ 80)
CC[C@H](CC1CCCC1)[C@@H](OCC1CC1)[C@H](C)OC(=O)[C@H](C)NC(=O)c1nccc(OC)c1OCOC(C)=O [Cmpd 509]	B (≤ 80)	D	B (≤ 80)	B (≤ 80)
CCCO[C@@H]([C@H](C)OC(=O)[C@H](C)NC(=O)c1nccc(OC)c1OCOC(C)=O)[C@H](CC)Oc1ccccc1 [Cmpd 510]	A (> 80)	B (≤ 80)	A (> 80)	A (> 80)
CCCO[C@@H]([C@H](C)OC(=O)[C@H](C)NC(=O)c1nccc(OC)c1OC(C)=O)[C@H](CC)Oc1ccccc1 [Cmpd 511]	B (≤ 80)	A (> 80)	A (> 80)	A (> 80)
CCCO[C@@H]([C@H](C)OC(=O)[C@H](C)NC(=O)c1nccc(OC)c1OCOC(=O)COCC)[C@H](CC)Oc1ccccc1 [Cmpd 512, (S)-(2S,3S,4S)-4-phenoxy-3-propoxyhexan-2-yl-2-(3-((2-ethoxyacetoxy)methoxy)-4-methoxypicolinamido)propanoate]	B (≤ 80)	A (> 80)	A (> 80)	A (> 80)
C=CC[C@@H](OCc1ccccc1)[C@H](C)OC(=O)[C@H](C)NC(=O)c1nccc(OC)c1OCOC(C)=O [Cmpd 516]	B (≤ 80)	D	A (> 80)	A (> 80)
C=CC[C@@H](OCc1ccccc1)[C@H](C)OC(=O)[C@H](C)NC(=O)c1nccc(OC)c1OCOC(=O)COCC [Cmpd 517]	A (> 80)	D	A (> 80)	A (> 80)
COc1ccnc(C(=O)NC(C)C(=O)OC(C)COCc2ccccc2)c1OCOC(C)=O (stereo not shown) [Cmpd 520]	B (≤ 80)	D	B (≤ 80)	B (≤ 80)
CCCOCC(C)OC(=O)C(C)NC(=O)c1nccc(OC)c1OC(C)=O (stereo not shown) [Cmpd 521]	D	D	D	D
CCCOCC(C)OC(=O)C(C)NC(=O)c1nccc(OC)c1OCOC(C)=O (stereo not shown) [Cmpd 522]	B (≤ 80)	B (≤ 80)	D	D
CCCOCC(C)OC(=O)C(C)NC(=O)c1nccc(OC)c1OCOC(=O)C(C)C (stereo not shown) [Cmpd 523]	D	D	D	D
COc1ccnc(C(=O)NC(C)C(=O)OC(C)COc2ccccc2)c1OC(C)=O (stereo not shown) [Cmpd 524]	B (≤ 80)	B (≤ 80)	D	B (≤ 80)
COc1ccnc(C(=O)NC(C)C(=O)OC(C)COc2ccccc2)c1OCOC(C)=O (stereo not shown) [Cmpd 525]	B (≤ 80)	D	D	B (≤ 80)

Reference: patent US20180000085A1, “USE OF PICOLINAMIDE COMPOUNDS WITH FUNGICIDAL ACTIVITY” (DOW AGROSCIENCES LLC, priority 2014, published 2018)
